In patent US12662479B2 (Foghorn Therapeutics Inc., priority 2020, dated 2026):

What was measured:
HiBit-BRM fusion protein = target: T1, HiBit-BRM fusion protein (Homo sapiens, UniProt P51531); assay: HiBiT-BRM cell-based degradation assay (Nano-Glo HiBiT Lytic Detection, 24 h); conditions: HeLa cells expressing HiBiT-BRM; for DC50: read-out: BRM HiBit Degradation IC50; for BRM HiBit Degradation Maximum measured: top dose 30 μM
T1 construct: expressed in transfected cells
Outline: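 Luminescence from reconstituted NanoBiT luciferase in lysed HeLa HiBiT-BRM cells served as the measure of remaining BRM after 24 h treatment. Compounds were tested from 30 μM final downward in 3-fold steps. DMSO and 2 μM of a standard BRM/BRG1 degrader defined the scale limits.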

[1] = target: T2, HiBit-BRG1 fusion protein (Homo sapiens, UniProt P51532); assay: HiBiT-BRG1 cell-based degradation assay (Nano-Glo HiBiT Lytic Detection, 24 h); conditions: HeLa cells expressing HiBit-BRG1 and LgBit; for DC50: read-out: BRG1 HiBit Degradation IC50; for Dmax: HeLa, top dose 30 μM, read-out: BRG1 HiBit Degradation Maximum measured
T2 construct: expressed in transfected cells
Outline: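 Stable HeLa line expressing HiBiT-BRG1 and LgBiT, seeded at 5000 cells/well; luminescence read after lytic Nano-Glo HiBiT reagent and 10 min shaking at RT. % degradation normalised between DMSO (high control) and 2 μM reference BRM/BRG1 degrader (low control).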

T2 sequence (P51532 whole entry, the tested form may be a part): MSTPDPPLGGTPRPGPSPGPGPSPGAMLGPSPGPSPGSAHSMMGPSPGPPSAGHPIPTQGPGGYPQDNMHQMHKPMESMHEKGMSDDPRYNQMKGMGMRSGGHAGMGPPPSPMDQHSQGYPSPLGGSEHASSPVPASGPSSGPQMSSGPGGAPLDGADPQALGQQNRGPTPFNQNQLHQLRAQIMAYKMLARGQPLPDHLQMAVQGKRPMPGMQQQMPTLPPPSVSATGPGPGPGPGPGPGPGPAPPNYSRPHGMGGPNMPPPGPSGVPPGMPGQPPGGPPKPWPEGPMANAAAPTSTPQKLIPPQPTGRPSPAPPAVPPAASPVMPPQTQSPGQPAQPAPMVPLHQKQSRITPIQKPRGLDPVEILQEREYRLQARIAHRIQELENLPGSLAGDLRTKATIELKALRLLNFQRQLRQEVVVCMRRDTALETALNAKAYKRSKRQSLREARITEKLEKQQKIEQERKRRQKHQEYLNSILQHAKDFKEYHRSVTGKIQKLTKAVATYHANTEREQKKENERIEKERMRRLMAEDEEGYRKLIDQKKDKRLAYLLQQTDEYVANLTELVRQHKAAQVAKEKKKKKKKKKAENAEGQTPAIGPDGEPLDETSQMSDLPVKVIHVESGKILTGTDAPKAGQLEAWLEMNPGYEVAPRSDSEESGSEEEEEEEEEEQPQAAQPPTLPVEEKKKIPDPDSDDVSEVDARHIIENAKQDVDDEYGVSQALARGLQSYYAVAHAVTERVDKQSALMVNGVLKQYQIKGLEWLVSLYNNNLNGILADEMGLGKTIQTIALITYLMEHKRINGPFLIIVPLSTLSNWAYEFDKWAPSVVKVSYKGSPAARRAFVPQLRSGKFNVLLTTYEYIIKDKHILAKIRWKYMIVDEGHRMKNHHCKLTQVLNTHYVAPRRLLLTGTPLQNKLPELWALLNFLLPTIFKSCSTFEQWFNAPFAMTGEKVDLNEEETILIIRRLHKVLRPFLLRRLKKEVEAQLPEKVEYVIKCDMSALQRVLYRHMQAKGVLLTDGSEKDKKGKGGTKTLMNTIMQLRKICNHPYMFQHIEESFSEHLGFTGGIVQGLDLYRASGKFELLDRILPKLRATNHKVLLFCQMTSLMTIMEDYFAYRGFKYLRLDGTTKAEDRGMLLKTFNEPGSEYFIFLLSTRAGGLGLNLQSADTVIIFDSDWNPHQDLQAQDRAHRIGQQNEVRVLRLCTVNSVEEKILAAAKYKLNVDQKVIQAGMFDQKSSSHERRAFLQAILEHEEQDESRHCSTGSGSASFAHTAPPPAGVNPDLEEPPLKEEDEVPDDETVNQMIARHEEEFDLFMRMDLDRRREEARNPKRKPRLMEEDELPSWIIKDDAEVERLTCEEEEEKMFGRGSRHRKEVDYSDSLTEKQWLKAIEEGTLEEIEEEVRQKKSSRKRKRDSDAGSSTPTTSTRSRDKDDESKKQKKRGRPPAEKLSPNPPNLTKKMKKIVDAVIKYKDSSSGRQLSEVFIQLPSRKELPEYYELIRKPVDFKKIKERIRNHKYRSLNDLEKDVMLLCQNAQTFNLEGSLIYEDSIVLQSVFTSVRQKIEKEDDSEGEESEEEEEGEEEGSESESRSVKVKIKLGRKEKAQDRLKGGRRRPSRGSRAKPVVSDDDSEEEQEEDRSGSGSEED
T1 sequence (P51531 whole entry, the tested form may be a part): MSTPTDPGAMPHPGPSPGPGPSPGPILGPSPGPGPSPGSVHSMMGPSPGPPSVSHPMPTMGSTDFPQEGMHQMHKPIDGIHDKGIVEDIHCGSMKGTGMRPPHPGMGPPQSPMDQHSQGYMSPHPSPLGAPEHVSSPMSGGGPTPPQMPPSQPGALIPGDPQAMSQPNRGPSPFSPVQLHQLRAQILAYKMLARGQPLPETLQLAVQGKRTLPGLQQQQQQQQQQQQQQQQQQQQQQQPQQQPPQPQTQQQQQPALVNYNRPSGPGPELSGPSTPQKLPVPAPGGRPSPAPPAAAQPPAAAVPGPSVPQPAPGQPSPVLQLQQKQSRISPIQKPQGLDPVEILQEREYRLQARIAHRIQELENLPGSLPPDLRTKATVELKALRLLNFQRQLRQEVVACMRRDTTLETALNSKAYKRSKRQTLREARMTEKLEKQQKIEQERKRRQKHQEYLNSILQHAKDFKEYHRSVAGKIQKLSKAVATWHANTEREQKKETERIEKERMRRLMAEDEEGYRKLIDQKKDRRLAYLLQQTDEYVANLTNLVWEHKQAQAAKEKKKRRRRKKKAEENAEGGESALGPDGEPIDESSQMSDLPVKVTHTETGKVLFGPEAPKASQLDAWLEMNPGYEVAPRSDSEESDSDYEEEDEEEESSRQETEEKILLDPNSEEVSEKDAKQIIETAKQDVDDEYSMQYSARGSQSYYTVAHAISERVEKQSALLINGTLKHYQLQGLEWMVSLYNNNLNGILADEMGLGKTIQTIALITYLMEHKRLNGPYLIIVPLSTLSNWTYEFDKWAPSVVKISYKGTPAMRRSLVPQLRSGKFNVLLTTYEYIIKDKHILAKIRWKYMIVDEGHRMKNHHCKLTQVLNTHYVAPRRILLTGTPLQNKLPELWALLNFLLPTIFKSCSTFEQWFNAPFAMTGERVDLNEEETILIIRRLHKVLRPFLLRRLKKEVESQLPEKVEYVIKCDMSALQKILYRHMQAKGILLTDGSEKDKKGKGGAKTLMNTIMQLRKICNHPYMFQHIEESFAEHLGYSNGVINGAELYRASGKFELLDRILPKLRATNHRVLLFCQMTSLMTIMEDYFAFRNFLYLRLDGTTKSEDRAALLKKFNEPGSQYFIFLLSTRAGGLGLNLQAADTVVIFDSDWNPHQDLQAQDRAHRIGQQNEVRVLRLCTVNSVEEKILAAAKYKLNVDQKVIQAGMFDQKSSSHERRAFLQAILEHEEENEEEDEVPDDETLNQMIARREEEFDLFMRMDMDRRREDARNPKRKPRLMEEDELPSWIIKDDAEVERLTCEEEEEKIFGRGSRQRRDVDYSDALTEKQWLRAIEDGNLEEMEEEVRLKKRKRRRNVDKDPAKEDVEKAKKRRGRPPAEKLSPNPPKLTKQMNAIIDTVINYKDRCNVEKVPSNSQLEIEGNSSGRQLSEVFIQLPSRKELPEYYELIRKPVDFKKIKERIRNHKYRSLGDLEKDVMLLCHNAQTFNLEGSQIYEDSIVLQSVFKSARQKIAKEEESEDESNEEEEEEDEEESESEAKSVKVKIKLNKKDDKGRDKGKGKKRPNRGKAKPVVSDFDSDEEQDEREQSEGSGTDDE

Row | SMILES | DC50 (HiBit-BRM fusion protein) [nM] | BRM HiBit Degradation Maximum measured (HiBit-BRM fusion protein) | DC50 [1] [nM] | Dmax [1] [%]
1 | CS(=O)(=O)n1ccc(C(=O)NCC(=O)Nc2nc(-c3cccc(-c4ccnc(C5(C(=O)NCCOCCOCCNc6ccc7c(c6)C(=O)N(C6CCC(=O)NC6=O)C7=O)CC5)c4)c3)cs2)c1 (stereo not shown) [Compound 101, N-[2-[[4-[3-[2-[1-[2-[2-[2-[[2-(2,6-dioxo-3-piperidyl)-1,3-dioxo-isoindolin-5-yl]amino]ethoxy]ethoxy]ethylcarbamoyl]-cyclopropyl]-4-pyridyl]phenyl]thiazol-2-yl]amino]-2-oxo-ethyl]-1-methylsulfonylpyrrole-3-carboxamide] | > 10000 | C (‘C’ = Maximum degradation <50%) | > 10000 | < 50
2 | CS(=O)(=O)n1ccc(C(=O)NCC(=O)Nc2nc(-c3cccc(-c4ccnc(C5(C(=O)NCCS(=O)(=O)CCNc6cccc7c6C(=O)N(C6CCC(=O)NC6=O)C7=O)CC5)c4)c3)cs2)c1 (stereo not shown) [Compound 102, N-[2-[[4-[3-[2-[1-[2-[2-[[2-(2,6-dioxo-3-piperidyl)-1,3-dioxo-isoindolin-4-yl]amino]ethylsulfonyl]ethylcarbamoyl]-cyclopropyl]-4-pyridyl]phenyl]thiazol-2-yl]amino]-2-oxo-ethyl]-1-methylsulfonylpyrrole-3-carboxamide] | > 10000 | C (‘C’ = Maximum degradation <50%) | 100 to 1000 | 50 to 75
3 | CS(=O)(=O)n1ccc(C(=O)NCC(=O)Nc2nc(-c3cccc(-c4ccnc(C5(C(=O)NCCCCS(=O)(=O)CCCNc6cccc7c6C(=O)N(C6CCC(=O)NC6=O)C7=O)CC5)c4)c3)cs2)c1 (stereo not shown) [Compound 103, N-(2-((4-(3-(2-(1-((4-((3-((2-(2,6-dioxopiperidin-3-yl)-1,3-dioxoisoindolin-4-yl)amino)propyl)sulfonyl)butyl)carbamoyl)-cyclopropyl)pyridin-4-yl)phenyl)thiazol-2-yl)amino)-2-oxoethyl)-1-(methylsulfonyl)-1H-pyrrole-3-carboxamide] | 100 to 1000 | B (‘B’ = Maximum degradation ≥50% and ≤75%) | 100 to 1000 | > 75
4 | CN(CCCCNC(=O)C1(c2cc(-c3cccc(-c4csc(NC(=O)CNC(=O)c5ccn(S(C)(=O)=O)c5)n4)c3)ccn2)CC1)CCCNc1cccc2c1C(=O)N(C1CCC(=O)NC1=O)C2=O (stereo not shown) [Compound 106, N-(2-((4-(3-(2-(1-((4-((3-((2-(2,6-dioxopiperidin-3-yl)-1,3-dioxoisoindolin-4-yl)amino)propyl)(methyl)amino)butyl)-carbamoyl)cyclopropyl)pyridin-4-yl)phenyl)thiazol-2-yl)amino)-2-oxoethyl)-1-(methylsulfonyl)-1H-pyrrole-3-carboxamide] | > 10000 | C (‘C’ = Maximum degradation <50%) | > 10000 | < 50
5 | CS(=O)(=O)n1ccc(C(=O)NCC(=O)Nc2nc(-c3cccc(-c4ccnc(C5(C(=O)N6CC(COc7ccc8c(c7)C(=O)N(C7CCC(=O)NC7=O)C8=O)C6)CC5)c4)c3)cs2)c1 (stereo not shown) [Compound 107, N-(2-((4-(3-(2-(1-(3-(((2-(2,6-dioxopiperidin-3-yl)-1,3-dioxoisoindolin-5-yl)oxy)methyl)azetidine-1-carbonyl)cyclopropyl)pyridin-4-yl)phenyl)thiazol-2-yl)amino)-2-oxoethyl)-1-(methylsulfonyl)-1H-pyrrole-3-carboxamide] | > 10000 | C (‘C’ = Maximum degradation <50%) | > 10000 | < 50
6 | CS(=O)(=O)n1ccc(C(=O)NCC(=O)Nc2nc(-c3cccc(-c4ccnc(C5(C(=O)N6CC(COc7cccc8c7C(=O)N(C7CCC(=O)NC7=O)C8=O)C6)CC5)c4)c3)cs2)c1 (stereo not shown) [Compound 109, N-[4-[3-(2-[1-[3-([[2-(2,6-dioxopiperidin-3-yl)-1,3-dioxoisoindol-4-yl]oxy]methyl)azetidine-1-carbonyl]cyclopropyl]pyridin-4-yl)phenyl]-1,3-thiazol-2-yl]-2-[(1-methanesulfonylpyrrol-3-yl)formamido]acetamide] | > 10000 | C (‘C’ = Maximum degradation <50%) | > 10000 | < 50
7 | Cc1ncsc1-c1ccc(CNC(=O)[C@@H]2C[C@@H](O)CN2C(=O)[C@@H](NC(=O)COCCOCCOCCNC(=O)C2(c3cc(-c4cccc(-c5csc(NC(=O)CNC(=O)c6ccn(S(C)(=O)=O)c6)n5)c4)ccn3)CC2)C(C)(C)C)cc1 [Compound 110, N-[2-[[4-[3-[2-[1-[2-[2-[2-[2-[[(1S)-1-[(2S,4R)-4-hydroxy-2-[[4-(4-methylthiazol-5-yl)phenyl]methylcarbamoyl]pyrrolidine-1-carbonyl]-2,2-dimethyl-propyl]amino]-2-oxo-ethoxy]ethoxy]ethoxy]ethylcarbamoyl]-cyclopropyl]-4-pyridyl]phenyl]thiazol-2-yl]amino]-2-oxo-ethyl]-1-methylsulfonyl-pyrrole-3-carboxamide] | 100 to 1000 | B (‘B’ = Maximum degradation ≥50% and ≤75%) | 100 to 1000 | > 75
8 | CN(CCNC(=O)COc1ccc2c(c1)C(=O)N(C1CCC(=O)NC1=O)C2=O)CCNC(=O)C1(c2cc(-c3cccc(-c4csc(NC(=O)CNC(=O)c5ccn(S(C)(=O)=O)c5)n4)c3)ccn2)CC1 (stereo not shown) [Compound 111, N-[2-[[4-[3-[2-[1-[2-[2-[[2-[2-(2,6-dioxo-3-piperidyl)-1,3-dioxo-isoindolin-5-yl]oxyacetyl]amino]ethyl-methylamino]ethylcarbamoyl]cyclopropyl]-4-pyridyl]phenyl]thiazol-2-yl]amino]-2-oxo-ethyl]-1-methylsulfonyl-pyrrole-3-carboxamide] | > 10000 | C (‘C’ = Maximum degradation <50%) | > 10000 | < 50

Continued, values first:

Row | DC50 (HiBit-BRM fusion protein) [nM] | BRM HiBit Degradation Maximum measured (HiBit-BRM fusion protein) | DC50 [1] [nM] | Dmax [1] [%] | SMILES
9 | < 100 | A (‘A’ = Maximum degradation >75%) | < 100 | > 75 | Cc1ncsc1-c1ccc(CNC(=O)[C@@H]2C[C@@H](O)CN2C(=O)[C@@H](NC(=O)CCCCCCCNC(=O)C2(c3cc(-c4cccc(-c5csc(NC(=O)CNC(=O)c6ccn(S(C)(=O)=O)c6)n5)c4)ccn3)CC2)C(C)(C)C)cc1 [Compound 99, N-(2-((4-(3-(2-(1-((8-(((S)-1-((2S,4R)-4-hydroxy-2-((4-(4-methylthiazol-5-yl)benzyl)carbamoyl)pyrrolidin-1-yl)-3,3-dimethyl-1-oxobutan-2-yl)amino)-8-oxooctyl)carbamoyl)cyclopropyl)-pyridin-4-yl)phenyl)thiazol-2-yl)amino)-2-oxoethyl)-1-(methylsulfonyl)-1H-pyrrole-3-carboxamide]
10 | 100 to 1000 | A (‘A’ = Maximum degradation >75%) | < 100 | > 75 | Cc1ncsc1-c1ccc(CNC(=O)[C@@H]2C[C@@H](O)CN2C(=O)[C@@H](NC(=O)CCCCCNC(=O)C2(c3cc(-c4cccc(-c5csc(NC(=O)CNC(=O)c6ccn(S(C)(=O)=O)c6)n5)c4)ccn3)CC2)C(C)(C)C)cc1 [Compound 100, N-(2-((4-(3-(2-(1-((6-(((S)-1-((2S,4R)-4-hydroxy-2-((4-(4-methylthiazol-5-yl)benzyl)carbamoyl)pyrrolidin-1-yl)-3,3-dimethyl-1-oxobutan-2-yl)amino)-6-oxohexyl)carbamoyl)cyclopropyl)-pyridin-4-yl)phenyl)thiazol-2-yl)amino)-2-oxoethyl)-1-(methylsulfonyl)-1H-pyrrole-3-carboxamide]
11 | < 100 | A (‘A’ = Maximum degradation >75%) | < 100 | > 75 | CS(=O)(=O)n1ccc(C(=O)NCC(=O)Nc2nc(-c3cccc(-c4ccnc(C5(C(=O)NCCCCCCNc6ccc7c(c6)C(=O)N(C6CCC(=O)NC6=O)C7=O)CC5)c4)c3)cs2)c1 (stereo not shown) [Compound 104, N-[2-[[4-[3-[2-[1-[6-[[2-(2,6-dioxo-3-piperidyl)-1,3-dioxo-isoindolin-5-yl]amino]hexylcarbamoyl]cyclopropyl]-4-pyridyl]phenyl]thiazol-2-yl]amino]-2-oxo-ethyl]-1-methylsulfonyl-pyrrole-3-carboxamide]
12 | < 100 | A (‘A’ = Maximum degradation >75%) | < 100 | > 75 | CS(=O)(=O)n1ccc(C(=O)NCC(=O)Nc2nc(-c3cccc(-c4ccnc(C5(C(=O)NCCCCNc6ccc7c(c6)C(=O)N(C6CCC(=O)NC6=O)C7=O)CC5)c4)c3)cs2)c1 (stereo not shown) [Compound 105, N-[2-[[4-[3-[2-[1-[4-[[2-(2,6-dioxo-3-piperidyl)-1,3-dioxo-isoindolin-5-yl]amino]butylcarbamoyl]cyclopropyl]-4-pyridyl]phenyl]thiazol-2-yl]amino]-2-oxo-ethyl]-1-methylsulfonyl-pyrrole-3-carboxamide]
13 | 100 to 1000 | A (‘A’ = Maximum degradation >75%) | 100 to 1000 | > 75 | Cc1ncsc1-c1ccc(CNC(=O)[C@@H]2C[C@@H](O)CN2C(=O)[C@@H](NC(=O)COCCOCCNC(=O)C2(c3cc(-c4cccc(-c5csc(NC(=O)CNC(=O)c6ccn(S(C)(=O)=O)c6)n5)c4)ccn3)CC2)C(C)(C)C)cc1 [Compound 108, N-[2-[[4-[3-[2-[1-[2-[2-[2-[[(1S)-1-[(2S,4R)-4-hydroxy-2-[[4-(4-methylthiazol-5-yl)phenyl]methylcarbamoyl]pyrrolidine-1-carbonyl]-2,2-dimethyl-propyl]amino]-2-oxo-ethoxy]ethoxy]ethylcarbamoyl]cyclopropyl]-4-pyridyl]phenyl]thiazol-2-yl]amino]-2-oxo-ethyl]-1-methylsulfonyl-pyrrole-3-carboxamide]
